Patent publication US11566007B2, “Ras inhibitors” (Revolution Medicines, Inc., priority 2019, dated 2023)
“And” between values parts separate entries of the source, which are not always exact repeats. Identical values can stand only once. Like-named read-outs stand apart in the source and are kept apart here.

What was measured:
KRAS WT = KRAS WT (Homo sapiens (Human), UniProt P01116+P62937); experiment: Ras-Raf (BRAF RBD) disruption / FRET / MOA assay, KRAS WT; format: biochemical; details: read-out: IC50* KRAS WT FRET data
Method in brief: (§1)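 A 10-point, 3-fold dilution series topping at 30 μM final was incubated 3 h at 25° C with the Ras/cyclophilin A/BRAF RBD mixture.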

[1] = tested on: NCI-H358 cells (K-Ras G12C); experiment: Potency assay: pERK in NCI-H358 cells; format: cell-based, human; details: Homo sapiens, NCI-H358; H358 KRAS G12C; read-out: pERK EC50
Method in brief: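 Inhibition of cellular pERK after a 4 h treatment, detected by AlphaLISA or In-Cell Western. IC50 from a four-parameter concentration-response fit.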

NRAS G12C = NRAS G12C (Homo sapiens (Human), UniProt P01111+P62937, G12C); experiment: Ras-Raf (BRAF RBD) disruption / FRET / MOA assay, NRAS G12C; format: biochemical; details: read-out: IC50* NRAS G12C FRET data
Method in brief: as §1

KRAS G13D = KRAS G13D (Homo sapiens (Human), UniProt P01116+P62937, G13D); experiment: Ras-Raf (BRAF RBD) disruption / FRET / MOA assay, KRAS G13D; format: biochemical; details: read-out: IC50* KRAS G13D FRET data
Method in brief: as §1

KRAS G12S = KRAS G12S (Homo sapiens (Human), UniProt P01116+P62937, G12S); experiment: Ras-Raf (BRAF RBD) disruption / FRET / MOA assay, KRAS G12S; format: biochemical; details: Ras-Raf disruption/FRET/MOA assay; class symbols; read-out: KRAS G12S FRET data IC50
Method in brief: as §1

KRAS G12D = KRAS G12D (Homo sapiens (Human), UniProt P01116+P62937, G12D); experiment: Ras-Raf (BRAF RBD) disruption / FRET / MOA assay, KRAS G12D; format: biochemical; details: Ras-Raf disruption/FRET/MOA assay; class symbols; read-out: KRAS G12D FRET data IC50
Method in brief: as §1

NCI-H358 (K-Ras G12C) = experiment: CellTiter-Glo cell viability assay, NCI-H358; format: cell-based, human; details: Homo sapiens, NCI-H358, 120 h, NCI-H358, 5-day treatment
Method in brief: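 Compounds were dispensed directly onto K-Ras mutant cells and incubated until day 5, then plates were equilibrated to room temperature for about 30 minutes before CellTiter-Glo luminescence. Signals were normalized as (sample/average DMSO)*100 and fitted by four-parameter logistic fit.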

K-Ras G12C = K-Ras G12C (Homo sapiens (Human), UniProt P01116+P62937, G12C); experiment: Ras-Raf (BRAF RBD) disruption / FRET / MOA assay, KRAS G12C; format: biochemical
Method in brief: as §1

KRAS G12V = KRAS G12V (Homo sapiens (Human), UniProt P01116+P62937, G12V); experiment: Ras-Raf (BRAF RBD) disruption / FRET / MOA assay, KRAS G12V; format: biochemical; details: read-out: IC50* KRAS G12V FRET data
Method in brief: as §1

K-Ras G13C = K-Ras G13C (Homo sapiens (Human), UniProt P01116+P62937, G13C); experiment: Ras-Raf (BRAF RBD) disruption / FRET / MOA assay, KRAS G13C; format: biochemical
Method in brief: as §1

[2] = class symbols, read-out: Additional H358 Cell Viability assay data (K-Ras G12C, IC50)
[3] = KRAS G12C, Ras-Raf disruption/FRET/MOA assay, read-out: IC50* KRAS G12C FRET data
[4] = KRAS G13C, Ras-Raf disruption/FRET/MOA assay, read-out: IC50* KRAS G13C FRET data

Chain of K-Ras G13C (P01116-2 other isoform, or with tags, fused parts or gaps G13C): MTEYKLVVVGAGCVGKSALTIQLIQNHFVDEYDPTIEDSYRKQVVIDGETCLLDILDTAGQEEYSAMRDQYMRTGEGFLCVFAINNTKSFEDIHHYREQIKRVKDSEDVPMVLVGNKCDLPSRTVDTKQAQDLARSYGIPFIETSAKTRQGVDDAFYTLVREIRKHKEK
Chain of K-Ras G13C (P62937 whole entry): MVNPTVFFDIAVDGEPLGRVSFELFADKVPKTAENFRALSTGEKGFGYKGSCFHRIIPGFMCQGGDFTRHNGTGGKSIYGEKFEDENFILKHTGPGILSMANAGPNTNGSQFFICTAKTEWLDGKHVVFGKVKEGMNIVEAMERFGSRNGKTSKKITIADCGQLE
Chain of KRAS G12V (P01116-2 other isoform, or with tags, fused parts or gaps G12V): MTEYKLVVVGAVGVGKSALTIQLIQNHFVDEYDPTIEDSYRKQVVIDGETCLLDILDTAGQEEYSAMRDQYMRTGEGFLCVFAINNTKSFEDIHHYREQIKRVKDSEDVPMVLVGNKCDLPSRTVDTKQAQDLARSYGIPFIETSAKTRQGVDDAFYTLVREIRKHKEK
Chain of KRAS G12V (P62937 whole entry): as the sequence (P62937 whole entry) above
Chain of KRAS G12S (P01116-2 other isoform, or with tags, fused parts or gaps G12S): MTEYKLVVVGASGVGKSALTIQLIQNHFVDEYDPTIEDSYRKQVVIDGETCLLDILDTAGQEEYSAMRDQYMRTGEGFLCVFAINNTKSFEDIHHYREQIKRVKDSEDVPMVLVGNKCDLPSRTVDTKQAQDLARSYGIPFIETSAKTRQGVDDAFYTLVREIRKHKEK
Chain of KRAS G12S (P62937 whole entry): as the sequence (P62937 whole entry) above
Chain of KRAS WT (P01116-2 other isoform, or with tags, fused parts or gaps): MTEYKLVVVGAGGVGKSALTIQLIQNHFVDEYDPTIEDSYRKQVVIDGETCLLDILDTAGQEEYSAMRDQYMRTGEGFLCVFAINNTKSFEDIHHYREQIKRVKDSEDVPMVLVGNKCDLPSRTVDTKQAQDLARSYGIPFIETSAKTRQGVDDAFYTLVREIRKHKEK
Chain of KRAS WT (P62937 whole entry): as the sequence (P62937 whole entry) above
Chain of KRAS G12D (P01116-2 other isoform, or with tags, fused parts or gaps G12D): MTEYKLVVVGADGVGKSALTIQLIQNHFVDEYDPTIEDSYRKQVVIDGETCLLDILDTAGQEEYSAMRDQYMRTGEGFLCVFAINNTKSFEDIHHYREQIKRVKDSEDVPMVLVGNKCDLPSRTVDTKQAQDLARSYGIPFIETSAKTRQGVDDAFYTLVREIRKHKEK
Chain of KRAS G12D (P62937 whole entry): as the sequence (P62937 whole entry) above
Chain of KRAS G13D (P01116-2 other isoform, or with tags, fused parts or gaps G13D): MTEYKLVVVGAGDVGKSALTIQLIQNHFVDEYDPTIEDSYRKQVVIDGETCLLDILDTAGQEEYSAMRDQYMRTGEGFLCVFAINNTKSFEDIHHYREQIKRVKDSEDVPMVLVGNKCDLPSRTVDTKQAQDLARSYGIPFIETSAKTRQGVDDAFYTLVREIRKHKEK
Chain of KRAS G13D (P62937 whole entry): as the sequence (P62937 whole entry) above
Chain of K-Ras G12C (P01116-2 other isoform, or with tags, fused parts or gaps G12C): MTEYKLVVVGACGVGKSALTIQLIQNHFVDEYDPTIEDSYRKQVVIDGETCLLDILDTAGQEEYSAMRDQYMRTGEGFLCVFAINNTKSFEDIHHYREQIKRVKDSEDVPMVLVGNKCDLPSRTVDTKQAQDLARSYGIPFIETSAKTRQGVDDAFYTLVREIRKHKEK
Chain of K-Ras G12C (P62937 whole entry): as the sequence (P62937 whole entry) above
Chain of NRAS G12C (P01111 whole entry G12C): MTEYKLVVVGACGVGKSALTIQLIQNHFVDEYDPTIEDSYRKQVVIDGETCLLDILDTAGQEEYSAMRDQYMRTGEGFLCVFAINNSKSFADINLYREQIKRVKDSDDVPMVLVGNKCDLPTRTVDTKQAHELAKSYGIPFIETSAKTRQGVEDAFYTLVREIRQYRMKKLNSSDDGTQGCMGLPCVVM
Chain of NRAS G12C (P62937 whole entry): as the sequence (P62937 whole entry) above

IC50 (NCI-H358 (K-Ras G12C); [2]) [nM]	SMILES	IC50 (KRAS WT)	EC50 [1] [nM]	IC50 (NRAS G12C)	IC50 (KRAS G13D)	IC50 (KRAS G12S)	IC50 (KRAS G12D)	IC50 (K-Ras G12C; [3])	IC50 (KRAS G12V)	IC50 (K-Ras G13C; [4])	IC50 (NCI-H358 (K-Ras G12C); read-out: H358 Cell Viability (K-Ras G12C) IC50) [nM]	IC50 (K-Ras G12C; with Cyclophilin A, BRAF RBD, read-out: FRET (K-Ras G12C) IC50) [nM]	IC50 (K-Ras G13C; with Cyclophilin A, BRAF RBD, read-out: FRET (K-Ras G13C) IC50) [nM]
> 1000	CCn1c(-c2ccccc2CN(C)C)c2c3cc(ccc31)-c1cc(O)cc(c1)C[C@H](NC(=O)[C@@H](C(C)C)N(C)C(=O)c1ncc(NC(=O)/C=C/CN(C)C)n1C)C(=O)N1CCC[C@H](N1)C(=O)OCC(C)(C)C2 [Example A126]	> 10000 nM	< 5000	10 to 100 nM	> 10000 nM	> 10000 nM	> 10000 nM	10 to 100 nM	> 10000 nM	100 to 1000 nM	–	–	–
–	CCn1c(-c2cccnc2[C@H](C)OC)c2c3cc(ccc31)-c1csc(n1)C[C@H](NC(=O)[C@H](C(C)C)N(C)C(=O)[C@H]1CCN(C(=O)C#CCN3CCOCC3)C1)C(=O)N1CCC[C@H](N1)C(=O)OCC(C)(C)C2 (atropisomer, axis not shown) [Example A186]	> 10000 nM	< 5000	10 to 100 nM and 1000 to 10000 nM	> 10000 nM	1000 to 10000 nM and > 10000 nM	> 10000 nM	10 to 100 nM and 1000 to 10000 nM	1000 to 10000 nM and > 10000 nM	> 10000 nM and 1000 to 10000 nM	5	38	940
< 10	CCn1c(-c2cccnc2[C@H](C)OC)c2c3cc(ccc31)-c1cccc(c1)C[C@H](NC(=O)[C@H](C(C)C)N1CCC3(CN(C(=O)C#CC(C)(C)N(C)C)C3)C1=O)C(=O)N1CCC[C@H](N1)C(=O)OCC(C)(C)C2 (atropisomer, axis not shown) [Example A324]	1000 to 10000 nM	< 5000	< 10 nM	> 10000 nM	1000 to 10000 nM	> 10000 nM	< 10 nM	1000 to 10000 nM	100 to 1000 nM	–	–	–
> 1000	CCn1c(-c2ccccc2CN(C)C)c2c3cc(ccc31)-c1cc(O)cc(c1)C[C@H](NC(=O)[C@H](C(C)C)N(C)Cc1ccc(NC(=O)/C=C/CN(C)C)cn1)C(=O)N1CCC[C@H](N1)C(=O)OCC(C)(C)C2 [Example A213]	1000 to 10000 nM and > 10000 nM	< 5000	1000 to 10000 nM and > 10000 nM	1000 to 10000 nM and > 10000 nM	1000 to 10000 nM and > 10000 nM	1000 to 10000 nM and > 10000 nM	100 to 1000 nM and > 10000 nM	1000 to 10000 nM and > 10000 nM	100 to 1000 nM and 1000 to 10000 nM	–	–	–
10 to 100	C=CC(=O)N1C[C@H](C)N(C(=O)N(C)[C@H](C(=O)N[C@H]2Cc3nc(cs3)-c3ccc4c(c3)c(c(-c3cccnc3[C@H](C)OC)n4CC)CC(C)(C)COC(=O)[C@@H]3CCCN(N3)C2=O)C(C)C)C[C@H]1C (atropisomer, axis not shown) [Example A430]	100 to 1000 nM	< 5000	100 to 1000 nM	1000 to 10000 nM	100 to 1000 nM	1000 to 10000 nM	100 to 1000 nM	1000 to 10000 nM	100 to 1000 nM	–	–	–

SMILES	IC50 (NCI-H358 (K-Ras G12C); [2]) [nM]	IC50 (KRAS WT)	EC50 [1] [nM]	IC50 (NRAS G12C)	IC50 (KRAS G13D)	IC50 (KRAS G12S)	IC50 (KRAS G12D)	IC50 (K-Ras G12C; [3])	IC50 (KRAS G12V)	IC50 (K-Ras G13C; [4])	IC50 (NCI-H358 (K-Ras G12C); read-out: H358 Cell Viability (K-Ras G12C) IC50) [nM]	IC50 (K-Ras G12C; with Cyclophilin A, BRAF RBD, read-out: FRET (K-Ras G12C) IC50) [nM]	IC50 (K-Ras G13C; with Cyclophilin A, BRAF RBD, read-out: FRET (K-Ras G13C) IC50) [nM]
CC#CC(=O)N1C[C@H](C)[C@H](C(=O)N(C)[C@H](C(=O)N[C@H]2Cc3cccc(c3)-c3ccc4c(c3)c(c(-c3cccnc3[C@H](C)OC)n4CC)CC(C)(C)COC(=O)[C@@H]3CCCN(N3)C2=O)C(C)C)C1 (atropisomer, axis not shown) [Example A413]	10 to 100	1000 to 10000 nM	< 5000	100 to 1000 nM	1000 to 10000 nM	1000 to 10000 nM	> 10000 nM	100 to 1000 nM	1000 to 10000 nM	1000 to 10000 nM	–	–	–
C=CC(=O)N1CCC(C(=O)N(C)[C@H](C(=O)N[C@H]2Cc3cc(O)cc(c3)-c3ccc4c(c3)c(c(-c3cccnc3[C@H](C)OC)n4CC)CC(C)(C)COC(=O)[C@@H]3CCCN(N3)C2=O)C(C)C)CC1 (atropisomer, axis not shown) [Example A260]	< 10	10 to 100 nM	< 5000	10 to 100 nM	10 to 100 nM	10 to 100 nM	100 to 1000 nM	10 to 100 nM	100 to 1000 nM	10 to 100 nM	–	–	–
C=CC(=O)N1CC[C@H](C(=O)N(C)[C@H](C(=O)N[C@H]2Cc3cc(O)cc(c3)-c3ccc4c(c3)c(c(-c3ccc(CN(C)C)c(COC)c3)n4CC)CC(C)(C)COC(=O)[C@@H]3CCCN(N3)C2=O)C(C)C)C1 [Example A111]	10 to 100	1000 to 10000 nM	< 5000	100 to 1000 nM	1000 to 10000 nM	1000 to 10000 nM	> 10000 nM	100 to 1000 nM	1000 to 10000 nM	1000 to 10000 nM	–	–	–
